Measured values: US8003660B2, “Modulators of muscarinic receptors” (Vertex Pharmaceuticals Incorporated, priority 2006, dated 2011)
Where two headings read alike, the source gives them in different places.

Key:
Format in all cases: cell-based
[1] = biological target: T1, M4 muscarinic receptor (Homo sapiens, UniProt P08173); experiment: Functional mobilization of intracellular calcium (FLIPR) in CHO cells expressing M4; details: for M4 Activity: CHO cells expressing M4, FLIPR calcium assay; for Emax: CHO; for EC50: CHO cells expressing M4, FLIPR calcium
T1 construct: expressed in transfected cells; host or cells: CHO (M4-CHO)
T1 sequence (P08173 1-479): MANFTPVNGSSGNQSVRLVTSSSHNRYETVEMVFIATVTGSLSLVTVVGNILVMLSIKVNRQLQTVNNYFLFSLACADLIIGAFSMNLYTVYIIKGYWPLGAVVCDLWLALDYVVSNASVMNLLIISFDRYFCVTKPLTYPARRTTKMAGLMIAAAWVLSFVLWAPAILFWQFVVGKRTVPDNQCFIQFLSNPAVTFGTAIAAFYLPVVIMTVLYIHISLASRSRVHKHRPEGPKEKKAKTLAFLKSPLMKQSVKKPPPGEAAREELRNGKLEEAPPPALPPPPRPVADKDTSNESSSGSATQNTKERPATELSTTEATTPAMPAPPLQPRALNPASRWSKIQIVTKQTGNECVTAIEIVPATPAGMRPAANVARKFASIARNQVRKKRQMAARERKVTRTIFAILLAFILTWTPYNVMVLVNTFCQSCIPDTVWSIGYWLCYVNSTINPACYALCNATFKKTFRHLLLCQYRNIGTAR
Method in brief: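 Recombinant CHO cells loaded with Fluo-3 AM or Calcium 3 dye in pH 7.4 buffer containing 1 mM probenecid, with 0.5% final DMSO. For agonism, compound is added directly. For inhibition, it is preincubated 15 min, or co-applied, before carbachol at EC80. FLIPR fluorescence (ex 488, em 540 nm) is recorded for 60 s.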

[2] = biological target: T2, M2 muscarinic receptor (Homo sapiens, UniProt P08172); experiment: Functional mobilization of intracellular calcium (FLIPR) in CHO cells expressing M2; details: for M2 Activity: CHO cells expressing M2, FLIPR calcium assay; for Emax: CHO; for EC50: CHO cells expressing M2, FLIPR calcium
T2 construct: expressed in transfected cells; host or cells: CHO (M2-CHO)
T2 sequence (P08172 1-466): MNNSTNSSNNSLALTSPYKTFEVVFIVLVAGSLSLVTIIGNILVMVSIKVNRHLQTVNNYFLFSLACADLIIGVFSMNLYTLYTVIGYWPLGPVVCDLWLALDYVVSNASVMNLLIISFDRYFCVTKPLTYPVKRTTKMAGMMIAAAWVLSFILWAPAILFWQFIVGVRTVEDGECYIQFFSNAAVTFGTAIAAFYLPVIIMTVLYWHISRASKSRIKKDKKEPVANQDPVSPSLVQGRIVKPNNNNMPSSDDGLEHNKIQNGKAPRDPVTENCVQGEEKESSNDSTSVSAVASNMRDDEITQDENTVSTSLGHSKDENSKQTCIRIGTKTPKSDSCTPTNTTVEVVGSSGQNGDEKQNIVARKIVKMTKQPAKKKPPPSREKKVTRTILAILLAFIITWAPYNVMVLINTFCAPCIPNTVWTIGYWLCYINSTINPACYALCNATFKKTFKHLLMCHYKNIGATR
Method in brief: (§1)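 Calcium flux is read on FLIPR over 60 sec at 488/540 nm in muscarinic-receptor CHO lines. Antagonist mode adds carbachol at EC80 after 15 min compound preincubation or with simultaneous co-application. Agonist mode adds compound alone. Cells carry Fluo-3 or Calcium 3 dye in probenecid-containing pH 7.4 buffer, 0.5% DMSO final.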

[3] = biological target: T3, M3 muscarinic receptor (Homo sapiens, UniProt P20309); experiment: Functional mobilization of intracellular calcium (FLIPR) in CHO cells expressing M3; details: for M3 Activity: CHO cells expressing M3, FLIPR calcium assay; for Emax: CHO; for EC50: CHO cells expressing M3, FLIPR calcium
T3 construct: expressed in transfected cells; host or cells: CHO (M3-CHO)
Method in brief: as §1

[4] = biological target: T4, M1 muscarinic receptor (Homo sapiens, UniProt P11229); experiment: Functional mobilization of intracellular calcium (FLIPR) in CHO cells expressing M1; details: for M1 Activity: CHO cells expressing M1, FLIPR calcium assay; for Emax: CHO; for EC50: CHO cells expressing M1, FLIPR calcium
T4 construct: expressed in transfected cells; host or cells: CHO (M1-CHO)
T4 sequence (P11229 1-460): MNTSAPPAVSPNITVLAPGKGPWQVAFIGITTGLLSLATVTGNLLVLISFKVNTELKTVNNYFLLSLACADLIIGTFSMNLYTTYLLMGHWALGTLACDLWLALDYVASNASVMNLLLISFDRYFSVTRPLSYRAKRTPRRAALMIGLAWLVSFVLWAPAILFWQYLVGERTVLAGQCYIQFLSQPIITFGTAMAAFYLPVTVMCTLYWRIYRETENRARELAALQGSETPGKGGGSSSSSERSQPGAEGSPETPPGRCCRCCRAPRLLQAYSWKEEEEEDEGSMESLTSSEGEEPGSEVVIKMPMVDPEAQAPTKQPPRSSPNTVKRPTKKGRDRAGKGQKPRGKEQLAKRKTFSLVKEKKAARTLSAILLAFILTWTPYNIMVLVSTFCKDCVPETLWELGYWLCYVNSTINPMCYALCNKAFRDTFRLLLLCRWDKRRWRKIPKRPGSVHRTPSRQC
Method in brief: as §1

[5] = 100% efficacy = maximum response obtained with the Carbachol control
[6] = 100% = maximum response obtained with the Carbachol control, read-out: M4 Efficacy
[7] = 100% = maximum response obtained with the Carbachol control, read-out: M2 Efficacy
[8] = 100% = maximum response obtained with the Carbachol control, read-out: M3 Efficacy
[9] = 100% = maximum response obtained with the Carbachol control, read-out: M1 Efficacy
[10] = 100% = maximum response obtained with the Carbachol control

T3 sequence (P20309 whole entry): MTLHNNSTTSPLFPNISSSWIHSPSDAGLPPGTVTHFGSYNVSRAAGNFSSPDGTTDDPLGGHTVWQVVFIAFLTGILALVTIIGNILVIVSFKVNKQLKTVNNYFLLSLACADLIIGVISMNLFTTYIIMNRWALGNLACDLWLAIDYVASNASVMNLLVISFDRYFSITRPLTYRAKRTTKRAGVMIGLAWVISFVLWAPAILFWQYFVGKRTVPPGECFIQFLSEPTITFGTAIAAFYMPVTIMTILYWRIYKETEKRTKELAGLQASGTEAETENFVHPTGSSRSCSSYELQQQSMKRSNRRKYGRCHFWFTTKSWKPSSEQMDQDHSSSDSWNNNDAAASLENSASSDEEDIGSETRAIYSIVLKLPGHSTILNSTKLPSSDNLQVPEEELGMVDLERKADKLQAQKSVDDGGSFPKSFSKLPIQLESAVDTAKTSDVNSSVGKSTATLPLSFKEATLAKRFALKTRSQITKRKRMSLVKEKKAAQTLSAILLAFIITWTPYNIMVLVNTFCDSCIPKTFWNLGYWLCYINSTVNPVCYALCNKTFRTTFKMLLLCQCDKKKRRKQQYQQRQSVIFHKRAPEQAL

SMILES	M4 Activity [1]	Emax [1, 5]	M2 Activity [2]	Emax [2, 5]	M3 Activity [3]	Emax [3, 5]	M1 Activity [4]	Emax [4, 5]	EC50 [1]	Emax [1, 6]	EC50 [2]	Emax [2, 7]	EC50 [3]	Emax [3, 8]	EC50 [4]	Emax [4, 9]	M4 Efficacy [1, 10]	M2 Efficacy [2, 10]	M3 Efficacy [3, 10]	M1 Efficacy [4, 10]
CC(=O)N[C@H]1CC2(CCN(CC(=O)N(CC#N)C(C)C)CC2)c2ccccc21 [compound 258]	+ (activity was measured to be greater than 5.0 μM)	< 25%	+ (activity was measured to be greater than 5.0 μM)	< 25%	+ (activity was measured to be greater than 5.0 μM)	< 25%	+ (activity was measured to be greater than 5.0 μM)	< 25%	–	–	–	–	–	–	–	–	–	–	–	–
CC(C)CCN1CCC2(CC[C@H](N(C)C(=O)N(C)C)c3ccccc32)CC1 [compound 206]	+++ (activity was measured to be less than 2.0 μM)	25 to 100%	+ (activity was measured to be greater than 5.0 μM)	< 25%	+ (activity was measured to be greater than 5.0 μM)	< 25%	+ (activity was measured to be greater than 5.0 μM)	< 25%	–	–	–	–	–	–	–	–	–	–	–	–
CC(=O)N[C@H]1CCC2(CCN(CCCCC(C)(C)C#N)CC2)c2ccccc21 [compound 179]	–	–	–	–	–	–	–	–	> 5 µM	< 25%	> 5 µM	< 25%	> 5 µM	< 25%	< 2 µM	25 to 100%	–	–	–	–
CC(=O)N(C1CC1)C1CCC2(CCN(CCC(C)(C)C)CC2)c2ccccc21 (centres unmarked) [compound 122]	–	–	–	–	–	–	–	–	< 2 µM	25 to 100%	> 5 µM	< 25%	> 5 µM	< 25%	< 2 µM	25 to 100%	–	–	–	–
CC(C)(C)CCN1CCC2(CC[C@H](NC(=O)CC3CCOCC3)c3ccc(F)cc32)CC1 [compound 145]	–	–	–	–	–	–	–	–	< 2 µM	25 to 100%	< 2 µM	< 25%	> 5 µM	< 25%	< 2 µM	25 to 100%	–	–	–	–
CCC(CC)(CCC#N)CN1CCC2(CC1)C[C@H](NC(C)=O)c1ccccc12 [compound 269]	++ (activity was measured to be from 2.0 μM to 5.0 μM)	25 to 100%	+ (activity was measured to be greater than 5.0 μM)	< 25%	+ (activity was measured to be greater than 5.0 μM)	< 25%	+ (activity was measured to be greater than 5.0 μM)	25 to 100%	–	–	–	–	–	–	–	–	–	–	–	–
CC(=O)N[C@@H]1CCC2(CCN(C(=O)OC(C)(C)C)CC2)c2ccccc21 [compound 280]	+ (activity was measured to be greater than 5.0 μM)	< 25%	+ (activity was measured to be greater than 5.0 μM)	< 25%	+ (activity was measured to be greater than 5.0 μM)	< 25%	+ (activity was measured to be greater than 5.0 μM)	< 25%	–	–	–	–	–	–	–	–	–	–	–	–
CC(=O)N1CCC[C@@H]1C(=O)N[C@H]1CCC2(CCN(CCC(C)(C)C)CC2)c2ccccc21 [compound 160]	–	–	–	–	–	–	–	–	< 2 µM	25 to 100%	> 5 µM	< 25%	> 5 µM	< 25%	< 2 µM	25 to 100%	–	–	–	–
CC(=O)N[C@H](C)C(=O)N[C@@H]1CCC2(CCN(CCC(C)(C)C)CC2)c2ccccc21 [compound 14]	–	–	–	–	–	–	–	–	< 2 µM	–	2 to 5 µM	–	> 5 µM	–	> 5 µM	–	++ (efficacy was calculated to be from 100% to 25%)	+ (efficacy was calculated to be less than 25%)	+ (efficacy was calculated to be less than 25%)	++ (efficacy was calculated to be from 100% to 25%)
CC(C)(C)CCN1CCC2(CC[C@H](NS(C)(=O)=O)c3ccccc32)CC1 [compound 1]	–	–	–	–	–	–	–	–	< 2 µM	25 to 100%	2 to 5 µM	< 25%	> 5 µM	< 25%	< 2 µM	25 to 100%	–	–	–	–
CC(C)(C)OC(=O)N1CCC2(CC1)C[C@H](NC(=O)C1CC1)c1ccccc12 [compound 279]	+ (activity was measured to be greater than 5.0 μM)	< 25%	+ (activity was measured to be greater than 5.0 μM)	< 25%	+ (activity was measured to be greater than 5.0 μM)	< 25%	+ (activity was measured to be greater than 5.0 μM)	< 25%	–	–	–	–	–	–	–	–	–	–	–	–
C[C@H](C(=O)N[C@H]1CCC2(CCN(CCC(C)(C)C)CC2)c2ccccc21)N1CCCCC1=O [compound 38]	–	–	–	–	–	–	–	–	< 2 µM	25 to 100%	> 5 µM	< 25%	> 5 µM	< 25%	< 2 µM	25 to 100%	–	–	–	–
COC(=O)CCCCCN1CCC2(CC1)C[C@H](NC(C)=O)c1ccccc12 [compound 257]	+++ (activity was measured to be less than 2.0 μM)	25 to 100%	+++ (activity was measured to be less than 2.0 μM)	25 to 100%	+ (activity was measured to be greater than 5.0 μM)	25 to 100%	+++ (activity was measured to be less than 2.0 μM)	> 100%	–	–	–	–	–	–	–	–	–	–	–	–
CC(=O)NC1CCC2(CCN(C(=O)OC(C)(C)C)CC2)c2ccccc21 (centres unmarked) [compound 260]	–	< 25%	–	< 25%	–	< 25%	–	< 25%	–	–	–	–	–	–	–	–	–	–	–	–
CC(=O)N1CCC[C@@H]1C(=O)N[C@@H]1CCC2(CCN(CCC(C)(C)C)CC2)c2ccccc21 [compound 107]	–	–	–	–	–	–	–	–	< 2 µM	25 to 100%	2 to 5 µM	< 25%	> 5 µM	< 25%	2 to 5 µM	25 to 100%	–	–	–	–
CC(=O)N[C@H]1CC2(CCN(CC(N)=O)CC2)c2ccccc21 [compound 229]	+ (activity was measured to be greater than 5.0 μM)	< 25%	+ (activity was measured to be greater than 5.0 μM)	< 25%	+ (activity was measured to be greater than 5.0 μM)	< 25%	+ (activity was measured to be greater than 5.0 μM)	< 25%	–	–	–	–	–	–	–	–	–	–	–	–
CCOCC(=O)N[C@@H]1CCC2(CCN(CCC(C)(C)C)CC2)c2ccccc21 [compound 99]	–	–	–	–	–	–	–	–	< 2 µM	25 to 100%	> 5 µM	< 25%	> 5 µM	< 25%	> 5 µM	< 25%	–	–	–	–
CC(C)[C@@H](C(=O)N[C@@H]1CCC2(CCN(CCC(C)(C)C)CC2)c2ccccc21)N1CCCC1=O [compound 126]	–	–	–	–	–	–	–	–	< 2 µM	25 to 100%	> 5 µM	< 25%	> 5 µM	< 25%	> 5 µM	< 25%	–	–	–	–
